Source: patent USH1942H, “Herbicidal 3-(pyrazolylphenyl)propanoic acids and derivatives” (FMC Corporation, priority 1998, dated 2001)

Assays:
[1] = test system: Soybean; experiment: pre-emergence herbicidal activity, soybean; format: in vivo, Glycine max var. Winchester; settings: preemergence, 1.0 kg/ha
Text: (§1) The test plants included soybean (Glycine max var. Winchester), field corn (Zea mays var. Pioneer 3732), wheat (Triticum aestivum var. Lew), morning glory (Ipomea lacunosa or Ipomea hederacea), velvetleaf (Abutilon theophrasti), green foxtail (Setaria viridis), Johnsongrass (Sorghum halepense), blackgrass (Aloepecurus myosuroides), common chickweed (Stellaria media), and common cocklebur (Xanthium strumarium L.).
(§2) For pre-emergence testing, two disposable fiber flats (8 cm×15 cm×25 cm) for each rate of application of each candidate herbicide were filled to an approximate depth of 6.5 cm with steam-sterilized sandy loam soil. The soil was leveled and impressed with a template to provide five evenly spaced furrows 13 cm long and 0.5 cm deep in each flat. Seeds of soybean, wheat, corn, green foxtail, and johnsongrass were planted in the furrows of the first flat, and seeds of velvetleaf, morningglory, common chickweed, cocklebur, and blackgrass were planted in the furrows of the second flat. […]
(§3) The pre-emergence flats were initially subjected to a light water spray. […] After 12-17 days, the plants were examined, and the phytotoxicity data were recorded. […]
(§4) Phytotoxicity data are taken as percent control. Percent control is determined by a method similar to the 0 to 100 rating system disclosed in "Research Methods in Weed Science," 2nd ed., B. Truelove, Ed. […]

[2] = test system: Wheat; experiment: pre-emergence herbicidal activity, wheat; format: in vivo, Triticum aestivum var. Lew; settings: preemergence, 1.0 kg/ha
Text: as §1, §2, §3, §4

[3] = test system: Corn; experiment: pre-emergence herbicidal activity, corn; format: in vivo, Zea mays var. Pioneer 3732; settings: preemergence, 1.0 kg/ha
Text: as §1, §2, §3, §4

[4] = test system: Velvetleaf; experiment: pre-emergence herbicidal activity, velvetleaf; format: in vivo, Abutilon theophrasti; settings: preemergence, 1.0 kg/ha
Text: as §1, §2, §3, §4

[5] = test system: Morningglory; experiment: pre-emergence herbicidal activity, morningglory; format: in vivo, Ipomea lacunosa or Ipomea hederacea; settings: preemergence, 1.0 kg/ha
Text: as §1, §2, §3, §4

[6] = test system: Chickweed; experiment: pre-emergence herbicidal activity, chickweed; format: in vivo, Stellaria media; settings: preemergence, 1.0 kg/ha
Text: as §1, §2, §3, §4

[7] = test system: Cocklebur; experiment: pre-emergence herbicidal activity, cocklebur; format: in vivo, Xanthium strumarium L.; settings: preemergence, 1.0 kg/ha
Text: as §1, §2, §3, §4

[8] = test system: Blackgrass; experiment: pre-emergence herbicidal activity, blackgrass; format: in vivo, Aloepecurus myosuroides; settings: preemergence, 1.0 kg/ha
Text: as §1, §2, §3, §4

[9] = test system: Green foxtail; experiment: pre-emergence herbicidal activity, green foxtail; format: in vivo, Setaria viridis; settings: preemergence, 1.0 kg/ha
Text: as §1, §2, §3, §4

[10] = test system: Johnsongrass; experiment: pre-emergence herbicidal activity, johnsongrass; format: in vivo, Sorghum halepense; settings: preemergence, 1.0 kg/ha
Text: as §1, §2, §3, §4

[11] = test system: Soybean; experiment: post-emergence herbicidal activity, soybean; format: in vivo, Glycine max var. Winchester; settings: postemergence, 1.0 kg/ha
[12] = test system: Wheat; experiment: post-emergence herbicidal activity, wheat; format: in vivo, Triticum aestivum var. Lew; settings: postemergence, 1.0 kg/ha
[13] = test system: Corn; experiment: post-emergence herbicidal activity, corn; format: in vivo, Zea mays var. Pioneer 3732; settings: postemergence, 1.0 kg/ha
[14] = test system: Chickweed; experiment: post-emergence herbicidal activity, chickweed; format: in vivo, Stellaria media; settings: postemergence, 1.0 kg/ha
[15] = test system: Cocklebur; experiment: post-emergence herbicidal activity, cocklebur; format: in vivo, Xanthium strumarium L.; settings: postemergence, 1.0 kg/ha
[16] = test system: Blackgrass; experiment: post-emergence herbicidal activity, blackgrass; format: in vivo, Aloepecurus myosuroides; settings: postemergence, 1.0 kg/ha
[17] = test system: Green foxtail; experiment: post-emergence herbicidal activity, green foxtail; format: in vivo, Setaria viridis; settings: postemergence, 1.0 kg/ha
[18] = test system: Johnsongrass; experiment: post-emergence herbicidal activity, johnsongrass; format: in vivo, Sorghum halepense; settings: postemergence, 1.0 kg/ha

| Structure (SMILES) | % CONTROL [1] | % CONTROL [2] | % CONTROL [3] | % CONTROL [4] | % CONTROL [5] | % CONTROL [6] | % CONTROL [7] | % CONTROL [8] | % CONTROL [9] | % CONTROL [10] | % CONTROL [11] | % CONTROL [12] | % CONTROL [13] | % CONTROL [14] | % CONTROL [15] | % CONTROL [16] | % CONTROL [17] | % CONTROL [18] |
| --- | --- | --- | --- | --- | --- | --- | --- | --- | --- | --- | --- | --- | --- | --- | --- | --- | --- | --- |
| CCOC(=O)C(Cl)Cc1cc(-c2nn(C)c(OC(F)F)c2Cl)c(F)cc1Cl (stereo not drawn) [Compound 2, Ethyl 2-chloro-3-[2-chloro-4-fluoro-5-(4-chloro-5-difluoromethoxy-1-methylpyrazol-3-yl)phenyl]propanoate] | 90% | 30% | 10% | 100% | 100% | 100% | 100% | 50% | 100% | 70% | 100% | 55% | 90% | 100% | 100% | 60% | 100% | 90% |
| CCOC(=O)C(Cl)Cc1cc(-c2nn(C)c(OC(F)F)c2Cl)c(Cl)cc1Cl (stereo not drawn) [Compound 1] | 100% | 20% | 40% | 100% | 100% | 100% | 100% | 40% | 100% | 80% | 100% | 30% | 60% | 100% | 100% | 40% | 100% | 100% |
